Where “and” joins values, the source holds several entries; their conditions need not be identical. Equal entries are not always repeated. Inconclusive results and toxic doses are left out. No stated cut-off is given here; in the data, active means T/C of 150% or more; inactive means T/C below 125%.
Tested on: L1210 leukemia ip in BDF1 mice, survival T/C
Assay: NCI In Vivo Anticancer Drug Screen. Data for tumor model L1210 Leukemia (intraperitoneal) in B6D2F1 (BDF1) mice
Conditions: endpoint: mean survival time, higher = longer survival
Summary of the method: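 Mice bearing the transplanted tumor received compound or vehicle. Survival of the treated group was divided by that of the vehicle-treated control group to give the ratio.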

[1] = dose: 100.0 mg/kg/injection, schedule: Q01DX009 (ip), vehicle: Klucel (hydroxypropylcellulose) (HPC)
[2] = dose: 200.0 mg/kg/injection, schedule: Q01DX009 (ip), vehicle: Klucel (hydroxypropylcellulose) (HPC)
[3] = dose: 400.0 mg/kg/injection, schedule: Q01DX009 (ip), vehicle: Klucel (hydroxypropylcellulose) (HPC)
[4] = dose: 100.0 mg/kg/injection, schedule: Q04DX003 (ip), vehicle: saline
[5] = dose: 100.0 mg/kg/injection, schedule: Q01DX009 (ip), vehicle: saline with Tween-80
[6] = dose: 100.0 mg/kg/injection, schedule: Q04DX003 (ip), vehicle: saline with Tween-80
[7] = dose: 200.0 mg/kg/injection, schedule: Q01DX009 (ip), vehicle: saline with Tween-80
[8] = dose: 200.0 mg/kg/injection, schedule: Q04DX003 (ip), vehicle: saline with Tween-80
[9] = dose: 400.0 mg/kg/injection, schedule: Q04DX003 (ip), vehicle: saline with Tween-80
[10] = dose: 100.0 mg/kg/injection, schedule: Q01DX001 (ip), vehicle: carboxymethylcellulose (CMC)
[11] = dose: 50.0 mg/kg/injection, schedule: Q01DX009 (ip), vehicle: Klucel (hydroxypropylcellulose) (HPC)
[12] = dose: 100.0 mg/kg/injection, schedule: Q04DX003 (ip), vehicle: Klucel (hydroxypropylcellulose) (HPC)
[13] = dose: 200.0 mg/kg/injection, schedule: Q04DX003 (ip), vehicle: Klucel (hydroxypropylcellulose) (HPC)
[14] = dose: 400.0 mg/kg/injection, schedule: Q04DX003 (ip), vehicle: Klucel (hydroxypropylcellulose) (HPC)
[15] = dose: 100.0 mg/kg/injection, schedule: Q01DX001 (ip), vehicle: Klucel (hydroxypropylcellulose) (HPC)
[16] = dose: 100.0 mg/kg/injection, schedule: Q04DX002 (ip), vehicle: Klucel (hydroxypropylcellulose) (HPC)
[17] = dose: 200.0 mg/kg/injection, schedule: Q01DX001 (ip), vehicle: Klucel (hydroxypropylcellulose) (HPC)
[18] = dose: 200.0 mg/kg/injection, schedule: Q04DX002 (ip), vehicle: Klucel (hydroxypropylcellulose) (HPC)
[19] = dose: 400.0 mg/kg/injection, schedule: Q01DX001 (ip), vehicle: Klucel (hydroxypropylcellulose) (HPC)
[20] = dose: 400.0 mg/kg/injection, schedule: Q04DX002 (ip), vehicle: Klucel (hydroxypropylcellulose) (HPC)
[21] = dose: 100.0 mg/kg/injection, schedule: Q01DX009 (ip), vehicle: saline
[22] = dose: 200.0 mg/kg/injection, schedule: Q01DX009 (ip), vehicle: saline
[23] = dose: 200.0 mg/kg/injection, schedule: Q04DX003 (ip), vehicle: saline
[24] = dose: 100.0 mg/kg/injection, schedule: Q01DX001 (ip), vehicle: saline
[25] = dose: 200.0 mg/kg/injection, schedule: Q01DX001 (ip), vehicle: saline
[26] = dose: 400.0 mg/kg/injection, schedule: Q01DX001 (ip), vehicle: saline
[27] = dose: 25.0 mg/kg/injection, schedule: Q04DX002 (ip), vehicle: Klucel (hydroxypropylcellulose) (HPC)
[28] = dose: 50.0 mg/kg/injection, schedule: Q04DX002 (ip), vehicle: Klucel (hydroxypropylcellulose) (HPC)

Measured: T/C

CCN(CC)CCN(CCN(CC)CC)c1ccc2ccccc2c1
inactive: dose: 75.0 mg/kg/injection, schedule: Q01DX001 (ip), vehicle: acetone 111 % of control

O=C(Nc1ccc(Cl)cc1[N+](=O)[O-])Oc1ccc(C2CCCCC2)cc1
inactive: [1] 93 % of control | [2] 89 % of control | [3] 88 % of control

COc1ccc2c(c1)C1(C)CCN(CCc3ccccc3)C(C2)C1C (stereo unspecified)
inactive: dose: 75.0 mg/kg/injection, schedule: Q01DX001 (ip), vehicle: carboxymethylcellulose (CMC) 93 % of control | dose: 150.0 mg/kg/injection, schedule: Q01DX001 (ip), vehicle: carboxymethylcellulose (CMC) 94 % of control

COC1CN(C(C)(C)C)C1
inactive: [4] 103 % of control

CC(C)C12OC1CC1C3(C)CCCC(C)(C(=O)O)C3CCC13OC32 (stereo unspecified)
inactive: [5] 98 % of control | [6] 90 % of control | [7] 96 % of control | [8] 90 % of control | dose: 400.0 mg/kg/injection, schedule: Q01DX009 (ip), vehicle: saline with Tween-80 93 % of control | [9] 90 % of control

CC(NP1(=O)OCC(C)([N+](=O)[O-])CO1)c1ccccc1 (stereo unspecified)
inactive: dose: 50.0 mg/kg/injection, schedule: Q01DX001 (ip), vehicle: carboxymethylcellulose (CMC) 97 % of control | [10] 113 % of control | dose: 200.0 mg/kg/injection, schedule: Q01DX001 (ip), vehicle: carboxymethylcellulose (CMC) 115 % of control | dose: 400.0 mg/kg/injection, schedule: Q01DX001 (ip), vehicle: carboxymethylcellulose (CMC) 95 % of control

O=C(O)CCC(=O)c1ccc(Cl)cc1
inactive: dose: 6.25 mg/kg/injection, schedule: Q01DX009 (ip), vehicle: saline with Tween-80 88 % of control | dose: 12.5 mg/kg/injection, schedule: Q01DX009 (ip), vehicle: saline with Tween-80 90 % of control | dose: 25.0 mg/kg/injection, schedule: Q01DX009 (ip), vehicle: saline with Tween-80 97 % of control

CN(N=O)c1ccc(N(C)N=O)cc1
inactive: [11] 100 % of control | [1] 97 % of control | [12] 96 % of control | [2] 102 % of control | [13] 93 % of control | [3] 92 % of control | [14] 96 % of control

CCc1ccccc1NC(=O)SCc1ccccc1
inactive: [15] 91 % of control | [1] 100 % of control and 90 % of control | [16] 95 % of control and 109 % of control | [12] 87 % of control | [17] 94 % of control | [2] 90 % of control | [18] 97 % of control and 102 % of control | [13] 102 % of control | [19] 89 % of control | [3] 108 % of control and 90 % of control | [20] 92 % of control and 105 % of control | [14] 98 % of control

C=CCNC(=O)C(Br)(CC)CC
inactive: [21] 92 % of control | [4] 96 % of control | [22] 92 % of control | [23] 96 % of control

Nc1cc(Cl)c(O)c(Cl)c1
inactive: dose: 12.5 mg/kg/injection, schedule: Q01DX015 (ip), vehicle: saline 97 % of control | dose: 25.0 mg/kg/injection, schedule: Q01DX001 (ip), vehicle: saline with Tween-80 93 % of control | dose: 25.0 mg/kg/injection, schedule: Q01DX015 (ip), vehicle: saline 100 % of control | dose: 50.0 mg/kg/injection, schedule: Q01DX001 (ip), vehicle: saline with Tween-80 92 % of control | dose: 50.0 mg/kg/injection, schedule: Q01DX015 (ip), vehicle: saline 97 % of control | [10] 93 % of control | [24] 93 % of control | dose: 100.0 mg/kg/injection, schedule: Q01DX015 (ip), vehicle: saline 91 % of control

O=[N+]([O-])c1ccc(O)cc1/C=N/Nc1nnc(N/N=C/c2cc(O)ccc2[N+](=O)[O-])c2ccccc12
inactive: dose: 50.0 mg/kg/injection, schedule: Q01DX001 (ip), vehicle: saline 98 % of control | [24] 98 % of control | [25] 98 % of control | [26] 102 % of control

C=COC1CCCCC1
inactive: [1] 101 % of control | [12] 97 % of control | [2] 100 % of control | [13] 90 % of control | [3] 95 % of control | [14] 88 % of control

O=C(O)/C=C/S(=O)(=O)c1ccc(Cl)cc1
inactive: dose: 12.5 mg/kg/injection, schedule: Q04DX002 (ip), vehicle: Klucel (hydroxypropylcellulose) (HPC) 101 % of control | dose: 25.0 mg/kg/injection, schedule: Q01DX009 (ip), vehicle: Klucel (hydroxypropylcellulose) (HPC) 97 % of control | [27] 97 % of control | [11] 97 % of control | [28] 108 % of control | [16] 95 % of control

CSc1nc2c(N)ncnc2n1C1OC(CO)C(O)C1O (stereo unspecified)
inactive: dose: 100.0 mg/kg/injection, schedule: Q01DX005 (ip), vehicle: saline 98 % of control | dose: 200.0 mg/kg/injection, schedule: Q01DX005 (ip), vehicle: saline 101 % of control

CCCP(=O)(CCC)C1CCCCC1
inactive: dose: 100.0 mg/kg/injection, schedule: Q01DX001 (ip), vehicle: saline with Tween-80 99 % of control | dose: 200.0 mg/kg/injection, schedule: Q01DX001 (ip), vehicle: saline with Tween-80 98 % of control | dose: 400.0 mg/kg/injection, schedule: Q01DX001 (ip), vehicle: saline with Tween-80 86 % of control

Clc1ccc(C2OCCO2)cc1
inactive: [1] 94 % of control | [2] 95 % of control | [3] 107 % of control

CCCCOc1ccc(CCOC(C)=O)cc1
inactive: [16] 112 % of control | [18] 108 % of control | [20] 104 % of control

COc1cc(C(O)C(=O)O)c([N+](=O)[O-])cc1OC (stereo unspecified)
inactive: [24] 96 % of control | [25] 91 % of control | [26] 91 % of control

COc1ccc2c(CSc3nc(N)nc4nc[nH]c34)cc(=O)oc2c1
inactive: [27] 108 % of control | [28] 112 % of control | [16] 120 % of control | [18] 123 % of control | [20] 115 % of control

COC(OC)c1nc(SC)[nH]c(=O)c1C[N+](C)(C)C
inactive: [5] 102 % of control | [6] 96 % of control | [7] 92 % of control | [8] 94 % of control | [9] 91 % of control

CCCCCCCC(=O)N1CC(C)OC(C)C1 (stereo unspecified)
inactive: [16] 100 % of control | [18] 114 % of control | [20] 107 % of control

Cc1ccc(CS)cc1
inactive: [1] 101 % of control | [12] 97 % of control | [2] 93 % of control | [13] 97 % of control | [14] 92 % of control

Cc1ccc(C(=O)c2ccn[nH]2)cc1
inactive: [15] 93 % of control | [12] 96 % of control | [17] 94 % of control | [13] 93 % of control | [19] 98 % of control | [14] 96 % of control

CCOC(=O)CCN1CCCCC1
inactive: [21] 101 % of control | [4] 93 % of control | [22] 98 % of control | [23] 97 % of control | dose: 400.0 mg/kg/injection, schedule: Q01DX009 (ip), vehicle: saline 104 % of control | dose: 400.0 mg/kg/injection, schedule: Q04DX003 (ip), vehicle: saline 103 % of control

Source: PubChem BioAssay AID248 (DTP/NCI, 2004)
